pEC50: −log10 of the molar value.
Legend:
[1] = tested on: SARS Coronavirus 2 recombinant with NanoLuc (SARS-CoV2-NLuc) in A549-hACE2 cells; experiment: organism not typed; format: cell-based; details: 48 h; read-out: SARS-CoV2 EC50
[2] = tested on: Respiratory syncytial virus recombinant with luciferase (RSV-Luc5) in Normal Human Bronchial Epithelial (NHBE) cells; experiment: microbe, parasite or virus in culture; format: cell-based; details: 72 h, read-out: RSV NHBE EC50
[3] = CC50 MT4 cytotoxicity (Cell-Titer Glo); format: cell-based; details: human
Experimental: Cytotoxicity of the compounds was determined in uninfected cells using the cell viability reagent in a similar fashion as described before for other cell types (Cihlar et al., Antimicrob Agents Chemother. 2008, 52(2):655-65). HEp-2 (1.5×10^3 cells/well) and MT-4 (2×10^3 cells/well) cells were plated in 384-well plates and incubated with the appropriate medium containing 3-fold serially diluted compound ranging from 15 nM to 100,000 nM. Cells were cultured for 4-5 days at 37° C. Following the incubation, the cells were allowed to equilibrate to 25° C., and cell viability was determined by adding Cell-Titer Glo viability reagent. The mixture was incubated for 10 min, and the luminescence signal was quantified using an Envision plate reader. Untreated cell and cells treated at 2 μM puromycin (Sigma, St. Louis, MO) serve as 100% and 0% cell viability control, respectively. The percent of cell viability was calculated for each tested compound concentration relative to the 0% and 100% controls and the CCso value was determined by non-linear regression as a compound concentration reducing the cell viability by 50%.

[4] = GI S9 stability - no PMSF; format: in vitro ADME; details: pH 7.4; human intestinal S9, PMSF-free; read-out: GIS9-HUMAN-NoPMSF T1/2
Experimental: Duplicate aliquots of test compound or positive control substrate (GS-7340) were added to S9 stock diluted with 100 mM phosphate buffered saline, pH 7.4, to obtain a protein concentration of 1.0 mg/mL. The S9 metabolic reactions were initiated by the addition of the substrates to the S9 reaction mixture to a final concentration of 2 μM. At 0, 10, 20, 30, 60 and 120 min, […] aliquots of the reaction mixture were transferred to plates containing […] of IS/Q solution. After quenching, the plates were centrifuged at 3000 g for 30 minutes, and 150 μL aliquots of each supernatant were diluted with 150 μL water. Aliquots ([…]) of the diluted supernatant were analyzed on a Thermo Q-Exactive mass spectrometer as described below. GI S9 Stability—No phenylmethylsulfonyl fluoride (PMSF): Similar to the procedure described above, test compounds were incubated at 2 μM with 1 mg/mL PMSF-free Intestinal S9 fractions. Samples are removed at 6 time points over the course of a 120 min experiment and the parent compound disappreance and reference compound A formation is determined by mass spectrometry.
Example K: Liquid Chromatography/Mass Spectroscopy Methods for S9 and Plasma Stability
Quantification of test compounds, Reference Compound A (S9 stability assay nucleoside metabolite), and controls was performed by analyte/internal standard peak area ratio (PAR) values measured on a Thermo Q-Exactive mass spectrometer coupled to a Dionex UltiMate 3000 HPLC with a Leap Technologies HTC PAL autosampler. The column used for analysis of test compounds and Reference Compound A was a Waters Acquity BEH C18 ([…] particle size, 2.1′50 mm). The column used for control (GS-7340) was a Thermo Hypersil GOLD ([…] particle size, 2.1′50 mm). Mobile phase A consisted of 0.1% (v/v) formic acid in water. Mobile phase B consisted of 0.1% (v/v) formic acid in acetonitrile. Elution of analytes was achieved by a series of linear gradients of acetonitrile in water containing 0.1°(v/v) formic acid. The mass spectrometer was calibrated on a weekly basis and mass tolerance of 5 ppm was used.

[5] = Plasma stability; format: in vitro ADME; parameters: unit not given here; details: 37° C., 2 μM substrate
Experimental: At 0.05, 0.5, 1, 2, 3 and 4 hr, […] aliquots of the reaction mixture were transferred to plates containing […] of IS/Q quenching solution. After quenching, the plates were centrifuged at 3000 g for 30 minutes, and 150 μL supernatant was diluted with 150 μL water. Aliquots ([…]) of the diluted supernatant were analyzed on a Thermo Q-Exactive mass spectrometer as described below.
Mobile phase A consisted of 0.1% (v/v) formic acid in water. Mobile phase B consisted of 0.1% (v/v) formic acid in acetonitrile. Elution of analytes was achieved by a series of linear gradients of acetonitrile in water containing 0.1°(v/v) formic acid. The mass spectrometer was calibrated on a weekly basis and mass tolerance of 5 ppm was used.

[6] = tested on: Caco-2 cells (clone C2BBe1); experiment: CACO-2 permeability; format: in vitro ADME; parameters: unit not given here; details: for DM Caco2 A to B: apical to basolateral, donor pH 6.5, receiver pH 7.4; for DM Caco2 B to A: basolateral to apical
Experimental: Pre-plated Caco-2 cells (clone C2BBel) were obtained from Sigma-Aldrich, Inc. (Atlanta, GA). Cell monolayers were grown to confluence on collagen-coated, microporous, polycarbonate membranes in 24-well transwell plates for 21 days. The permeability assay buffer in donor wells was Hanks' balanced salt solution (HBSS) containing 10 mM HEPES and 15 mM glucose at a pH of 6.5 containing 200 μM BNPP. The receiver wells used HBSS buffer containing 10 mM HEPES and 15 mM glucose at a pH of 7.4 and supplemented with 1°% BSA. After an initial equilibration with transport buffer, TEER values were read to test membrane integrity. The experiment was started by the addition of buffers containing test compounds, 200 μl and 1000 μl in the apical and basolateral chamber, respectively. At 0- and 2-hour post dose, 10 μL was sampled from donor compartment and was immediately diluted in 190 μL of 20% methanol. At 1 and 2 hours post dose, 100 μl of solution was taken from the receiver compartments and was immediately diluted in 100 μl of 20% methanol. Removed buffer was replaced with fresh buffer and a correction was applied to all calculations for the removed material. Each compound was tested in 2 separate replicate wells for each condition. All samples were then extracted with 400 μl 100% acetonitrile with internal standard to precipitate protein. Cells were dosed on the apical or basolateral side to determine forward (A to B) and reverse (B to A) permeability. To test for non-specific binding and compound instability, the total amount of drug was quantitated at the end of the experiment and compared to the material present in the original dosing solution as a percent recovery. […] Samples were analyzed by LC-MS/MS.

Compound	pEC50 [1]	pEC50 [2]	CC50 [3] [µM]	half-life at 2 µM [4] [min]	STA Human Plasma 37 [5]	DM Caco2 A to B [6]	DM Caco2 B to A [6]
C=CCOC(=O)OC[C@H]1O[C@@](C#N)(c2ccc3c(N)ncnn23)[C@H](O)[C@@H]1O [Compound 64, Ally (((2R,3S,4R,5R)-5-(4-aminopyrrolo[2,1-f][1,2,4]triazin-7-yl)-5-cyano-3,4-dihydroxytetrahydrofuran-2-yl)methyl) carbonate]	5.38	5.58	> 50	0.993	3	0.39	4.6
CC(C)C(C)(C)OC(=O)OC[C@H]1O[C@@](C#N)(c2ccc3c(N)ncnn23)[C@H](O)[C@@H]1O [Compound 68, ((2R,3S,4R,5R)-5-(4-aminopyrrolo[2,1-f][1,2,4]triazin-7-yl)-5-cyano-3,4-dihydroxytetrahydrofuran-2-yl)methyl (2,3-dimethylbutan-2-yl) carbonate]	5.50	5.89	> 50	46.1	266.43	0.98	7.09
CC1=CCC(OC(=O)OC[C@H]2O[C@@](C#N)(c3ccc4c(N)ncnn34)[C@H](O)[C@@H]2O)(C(C)C)CC1 (stereo partly drawn) [Compound 74, ((2R,3S,4R,5R)-5-(4-aminopyrrolo[2,1-f][1,2,4]triazin-7-yl)-5-cyano-3,4-dihydroxytetrahydrofuran-2-yl)methyl (1-isopropyl-4-methylcyclohex-3-en-1-yl) carbonate]	5.62	6.02	> 50	30.3	205.11	3.25	9.88
CC(C)OC(=O)OC[C@H]1O[C@@](C#N)(c2ccc3c(NC(=O)OC(C)(C)C)ncnn23)[C@H](OC(=O)OC(C)C)[C@@H]1OC(=O)OC(C)C [Compound 80, tert-butyl (7-((2R,3R,4R,5R)-2-cyano-3,4-bis((isopropoxycarbonyl)oxy)-5-(((isopropoxycarbonyl)oxy)methyl)tetrahydrofuran-2-yl)pyrrolo[2,1-f][1,2,4]triazin-4-yl)carbamate]	< 4.30	5.69	> 50	0.847	604.23	1.35	0.95
Cc1ccc(C(C)C)c(OC(=O)OC[C@H]2O[C@@](C#N)(c3ccc4c(N)ncnn34)[C@H](O)[C@@H]2O)c1 [Compound 82, ((2R,3S,4R,5R)-5-(4-aminopyrrolo[2,1-f][1,2,4]triazin-7-yl)-5-cyano-3,4-dihydroxytetrahydrofuran-2-yl)methyl (2-isopropyl-5-methylphenyl) carbonate]	5.81	5.62	> 50	2	193.22	2.73	20.67
CC(C)[C@@H]1CC[C@@H](C)C[C@H]1OC(=O)OC[C@H]1O[C@@](C#N)(c2ccc3c(N)ncnn23)[C@H](O)[C@@H]1O [Compound 83, ((2R,3S,4R,5R)-5-(4-aminopyrrolo[2,1-f][1,2,4]triazin-7-yl)-5-cyano-3,4-dihydroxytetrahydrofuran-2-yl)methyl ((1R,2S,5R)-2-isopropyl-5-methylcyclohexyl) carbonate]	4.61	5.63	21	12.1	1584	5.3	25.42
CC(C)OC(=O)OC[C@H]1O[C@@](C#N)(c2ccc3c(N)ncnn23)[C@H](O)[C@@H]1OC(=O)CCCCCCC(=O)O [Compound 130, 8-(((2R,3S,4R,5R)-5-(4-aminopyrrolo[2,1-f][1,2,4]triazin-7-yl)-5-cyano-4-hydroxy-2-(((isopropoxycarbonyl)oxy)methyl)tetrahydrofuran-3-yl)oxy)-8-oxooctanoic acid]	5.04	5.53	> 50	1.59	409.28	0.12	2.54
CCOC(=O)OC[C@H]1O[C@@](C#N)(c2ccc3c(NC(=O)OCc4ccccc4)ncnn23)[C@H](O)[C@@H]1O [Compound 131, benzyl (7-((2R,3R,4S,5R)-2-cyano-5-(((ethoxycarbonyl)oxy)methyl)-3,4-dihydroxytetrahydrofuran-2-yl)pyrrolo[2,1-f][1,2,4]triazin-4-yl)carbamate]	5.08	5.32	> 50	2.64	150.92	2.01	15.52
CCOC(=O)OC[C@H]1O[C@@](C#N)(c2ccc3c(N)ncnn23)[C@@H]2OC(CC)O[C@@H]21 (stereo partly drawn) [Compound 132, ((3aR,4R,6R,6aR)-6-(4-aminopyrrolo[2,1-f][1,2,4]triazin-7-yl)-6-cyano-2-ethyltetrahydrofuro[3,4-d][1,3]dioxol-4-yl)methyl ethyl carbonate]	< 4.30	< 4.30	> 50	0.624	12.304	12.34	13.86
COC(=O)O[C@H]1[C@@H](OC(=O)OC)[C@](C#N)(c2ccc3c(N)ncnn23)O[C@@H]1COC(=O)OC(C)C [Compound 135, (2R,3R,4R,5R)-2-(4-aminopyrrolo[2,1-f][1,2,4]triazin-7-yl)-2-cyano-5-(((isopropoxycarbonyl)oxy)methyl)tetrahydrofuran-3,4-diyl dimethyl bis(carbonate)]	< 4.30	< 4.30	> 50	0.653	96.462	3.87	18.05

— patent US12448383B2, “Compounds and methods for treatment of viral infections” (priority 2022, dated 2025)
